Where two headings read alike, the source gives them in different places. One block for each compound: values may come before it. Where a SMILES comes first, the peptide text is derived from it. Bridges are numbered along the chain shown (N, C = ends). [ ]: non-standard residue; d: D form. Phe(3-Cl) = N[C@@H](Cc1cccc(Cl)c1)C(=O)O; hCys = N[C@@H](CCS)C(=O)O; Nle = CCCC[C@H](N)C(=O)O
Columns and labels:
[1] = Cell penetration or infiltration of the polypeptides; assay type: cell-based
Description: In this example, the sequence was modified based on SEQ ID NO.: 1. Some preferred modification based on the tested results included: adding a disulfide linkage within the peptide, or adding a cell-penetrating element.

[2] = Stability in plasma (percentage of residual peptides); conditions: for Stability* (>24 h): plasma
Protocol: For the YAP inhibitory polypeptides modified in above (a) and (b), the IC50 values for TEAD binding and the stability in plasma were measured.

[3] = system: hepatoma cell line BEL7404; assay type: cell-based
Protocol: (§1) The hepatoma cell line BEL7404 (purchased from The Chinese Academy of Sciences cell bank) was a cell line with high expression of YAP protein; HCCLM3 (purchased from The Chinese Academy of Sciences cell bank) was a cell line with low expression of YAP protein. The hepatoma cell lines (BEL7404 or HCCLM3) were inoculated into a 96-well plate at the concentration of 2000 cells/well, and incubated overnight in RPMI1640 containing 1% bovine serum at 37° C. The hepatoma cell lines were treated with polypeptides having different concentrations at 37° C. for 72 h.
(§2) Moreover, IC50 values of the cells in 1.1 were determined using CCK-8 kit.
(§3) The polypeptide represented by SEQ ID NO.:1 was further modified. The IC50 values of the polypeptides at a concentration of 1% in cell cultivating for 72 h were measured.

[4] = system: hepatoma cell line HCCLM3; assay type: cell-based
Protocol: as §1, §2, §3

[5] = Table 2, percentage of residual peptides after >24 h
[6] = Table 8, at a concentration of 1% in cell cultivating for 72 h, unit inferred, read-out: IC50 BEL7404
[7] = Table 8, at a concentration of 1% in cell cultivating for 72 h, unit inferred, read-out: IC50 HCCLM3

SMILES: CSCC[C@H](NC(=O)[C@@H]1CCCN1C(=O)[C@@H](N)C(C)C)C(=O)N[C@H]1CCSSC[C@@H](C(=O)N[C@@H](CCCCN)C(=O)N2CCC[C@H]2C(=O)N2CCC[C@H]2C(=O)N[C@@H](CCC(=O)O)C(=O)O)NC(=O)[C@H](Cc2ccccc2)NC(=O)[C@H](CO)NC(=O)[C@H](CC(=O)O)NC(=O)[C@@H]2CCCN2C(=O)[C@H](CC(C)C)NC(=O)[C@H](CCCCN)NC(=O)[C@H](CCCNC(=N)N)NC(=O)[C@H](CC(C)C)NC1=O [Peptide 2]
Percentage of Cell penetration or infiltration (%) ([1]; Table 2, penetration of the peptide with RRMKWKK taken as 100%): 8%
Stability* (>24 h) [2, 5]: 13%
Stability* (>24 h) ([2]; Table 3, >24 h): 7%

Percentage of Cell penetration or infiltration (%) [1]: <10%
uptake by cells [1]: difficult for effective uptake by cells
Stability* (>24 h) [2, 5]: 0%
stability ([2]; in words): low stability
SMILES: CSCC[C@H](NC(=O)[C@@H]1CCCN1C(=O)[C@@H](N)C(C)C)C(=O)N[C@@H](CCCNC(=N)N)C(=O)N[C@@H](CC(C)C)C(=O)N[C@@H](CCCNC(=N)N)C(=O)N[C@@H](CCCCN)C(=O)N[C@@H](CC(C)C)C(=O)N1CCC[C@H]1C(=O)N[C@@H](CC(=O)O)C(=O)N[C@@H](CO)C(=O)N[C@@H](Cc1ccccc1)C(=O)N[C@@H](Cc1ccccc1)C(=O)N[C@@H](CCCCN)C(=O)N1CCC[C@H]1C(=O)N1CCC[C@H]1C(=O)N[C@@H](CCC(=O)O)C(=O)O [SEQ ID NO.: 1]

IC50 [3, 6]: 37.2 ± 1 µM
IC50 [4, 7]: 129 ± 26.4 µM
SMILES: CCCC[C@@H]1NC(=O)[C@H](CCCCN)NC(=O)[C@H](CCCCN)NC(=O)[C@H](CC(C)C)NC(=O)[C@@H](NC(=O)[C@H](Cc2cccc(Cl)c2)NC(=O)[C@@H]2CCCN2C(=O)[C@@H](N)C(C)C)CCSSC[C@@H](C(=O)N[C@@H](CCCCN)C(=O)N2CCC[C@H]2C(=O)N2CCC[C@H]2C(=O)N[C@@H](CCCNC(=N)N)C(=O)N[C@@H](CCCNC(=N)N)C(=O)N[C@@H](CCSC)C(=O)N[C@@H](CCCCN)C(=O)N[C@@H](Cc2c[nH]c3ccccc23)C(=O)N[C@@H](CCCCN)C(=O)N[C@@H](CCCCN)C(=O)O)NC(=O)[C@H](Cc2ccccc2)NC(=O)[C@H](CO)NC(=O)[C@H](C)NC(=O)[C@@H]2CCCN2C1=O [compound 23] (H-VP[Phe(3-Cl)][hCys]LKK[Nle]PASFCKPPRRMKWKK-OH; disulfide 4-13)

IC50 [3, 6]: 67.9 ± 6.4 µM
IC50 [4, 7]: 181 ± 21.7 µM
SMILES: CCCC[C@@H]1NC(=O)[C@H](CCCCN)NC(=O)[C@H](CCCNC(=N)N)NC(=O)[C@H](CC(C)C)NC(=O)[C@@H](NC(=O)[C@H](Cc2cccc(Cl)c2)NC(=O)[C@@H]2CCCN2C(=O)[C@@H](N)C(C)C)CCSSC[C@@H](C(=O)N[C@@H](CCCCN)C(=O)N2CCC[C@H]2C(=O)N2CCC[C@H]2C(=O)N[C@@H](CCCNC(=N)N)C(=O)N[C@@H](CCCNC(=N)N)C(=O)N[C@@H](CCSC)C(=O)N[C@@H](CCCCN)C(=O)N[C@@H](Cc2c[nH]c3ccccc23)C(=O)N[C@@H](CCCCN)C(=O)N[C@@H](CCCCN)C(=O)O)NC(=O)[C@H](Cc2ccccc2)NC(=O)[C@H](CO)NC(=O)[C@H](CCC(=O)O)NC(=O)[C@@H]2CCCN2C1=O [compound 22] (H-VP[Phe(3-Cl)][hCys]LRK[Nle]PESFCKPPRRMKWKK-OH; disulfide 4-13)

IC50 ([3]; 72 h): 763 ± 31.5 µM
IC50 ([4]; 72 h): > 1000 µM
SMILES: CSCC[C@H](NC(=O)[C@H](CCCNC(=N)N)NC(=O)[C@@H](N)CCCNC(=N)N)C(=O)N[C@@H](CCCCN)C(=O)N[C@@H](Cc1c[nH]c2ccccc12)C(=O)N[C@@H](CCCCN)C(=O)N[C@@H](CCCCN)C(=O)N1CCC[C@H]1C(=O)N[C@H](C(=O)NCC(=O)N[C@H](C(=O)N[C@H](C(=O)N[C@@H](CO)C(=O)NCC(=O)N1CCC[C@H]1C(=O)N[C@@H](C)C(=O)N[C@@H](C)C(=O)N[C@H](C(=O)N1CCC[C@H]1C(=O)N[C@H](C(=O)N[C@@H](C)C(=O)N[C@@H](CCC(N)=O)C(=O)N[C@@H](Cc1c[nH]cn1)C(=O)O)[C@@H](C)O)[C@@H](C)O)C(C)C)C(C)C)[C@@H](C)O [SEQ ID NO.: 19]

IC50 ([3]; 72 h): 211 ± 44.2 µM
IC50 ([4]; 72 h): > 1000 µM
SMILES: CC[C@H](C)[C@H](NC(=O)[C@H](CCCCN)NC(=O)[C@H](CCCCN)NC(=O)[C@H](Cc1c[nH]c2ccccc12)NC(=O)[C@H](CCCCN)NC(=O)[C@H](CCSC)NC(=O)[C@H](CCCNC(=N)N)NC(=O)[C@@H](N)CCCNC(=N)N)C(=O)N[C@H](C(=O)N[C@@H](Cc1c[nH]cn1)C(=O)N[C@H](C(=O)N[C@@H](CCCNC(=N)N)C(=O)NCC(=O)N[C@@H](CC(=O)O)C(=O)N[C@@H](CO)C(=O)N[C@@H](CCC(=O)O)C(=O)N[C@H](C(=O)N[C@@H](CC(=O)O)C(=O)N[C@@H](CC(C)C)C(=O)N[C@@H](CCC(=O)O)C(=O)N[C@@H](C)C(=O)N[C@@H](CC(C)C)C(=O)N[C@@H](Cc1ccccc1)C(=O)O)[C@@H](C)O)C(C)C)C(C)C [SEQ ID NO.: 17]

IC50 [3, 6]: 55.4 ± 6.3 µM
IC50 [4, 7]: 198 ± 19.6 µM
SMILES: CCCC[C@@H]1NC(=O)[C@@H](NC(=O)[C@H](Cc2cccc(Cl)c2)NC(=O)[C@@H]2CCCN2C(=O)[C@@H](N)C(C)C)CCSSC[C@@H](C(=O)N[C@@H](CCCCN)C(=O)N2CCC[C@H]2C(=O)N2CCC[C@H]2C(=O)N[C@@H](CCCNC(=N)N)C(=O)N[C@@H](CCCNC(=N)N)C(=O)N[C@@H](CCSC)C(=O)N[C@@H](CCCCN)C(=O)N[C@@H](Cc2c[nH]c3ccccc23)C(=O)N[C@@H](CCCCN)C(=O)N[C@@H](CCCCN)C(=O)O)NC(=O)[C@H](Cc2ccccc2)NC(=O)[C@H](CO)NC(=O)[C@H](CC(=O)O)NC(=O)[C@@H]2CCCN2C(=O)[C@H](CCCC)NC(=O)[C@H](CCCCN)NC(=O)[C@H](CCCCN)NC1=O [compound 28] (H-VP[Phe(3-Cl)][hCys][Nle]KK[Nle]PDSFCKPPRRMKWKK-OH; disulfide 4-13)

IC50 [3, 6]: 28.6 ± 2.9 µM
IC50 [4, 7]: 196 ± 16.3 µM
SMILES: CCCC[C@@H]1NC(=O)[C@H](CCCCN)NC(=O)[C@H](CCCNC(=N)N)NC(=O)[C@H](CC(C)C)NC(=O)[C@@H](NC(=O)[C@H](Cc2cccc(Cl)c2)NC(=O)[C@@H]2CCCN2C(=O)[C@@H](N)C(C)C)CCSSC[C@@H](C(=O)N[C@@H](CCCCN)C(=O)N2CCC[C@H]2C(=O)N2CCC[C@H]2C(=O)N[C@@H](CCCNC(=N)N)C(=O)N[C@@H](CCCNC(=N)N)C(=O)N[C@@H](CCSC)C(=O)N[C@@H](CCCCN)C(=O)N[C@@H](Cc2c[nH]c3ccccc23)C(=O)N[C@@H](CCCCN)C(=O)N[C@@H](CCCCN)C(=O)O)NC(=O)[C@H](Cc2ccccc2)NC(=O)[C@H](CO)NC(=O)[C@H](C)NC(=O)[C@@H]2CCCN2C1=O [compound 21] (H-VP[Phe(3-Cl)][hCys]LRK[Nle]PASFCKPPRRMKWKK-OH; disulfide 4-13)
